Assay results: paper PMC4769088, “Antifungal Activity and Action Mechanism of Histatin 5-Halocidin Hybrid Peptides against Candida ssp” (PLoS ONE, 2016)
Where a SMILES comes first, the peptide text is derived from it. Bridges are numbered along the chain shown (N, C = ends). Roman numbers before positions name the chains, in order. Where no end group is shown, it is not given here.

What was measured:
C. albicans strains = assay: Broth dilution assay (MIC), C. albicans strains; assay type: cell-based, Candida albicans; conditions: for killing activities against C. albicans strains in 150 mM salt: 150 mM NaCl; for decrease of killing activities in 150 mM salt: 150 mM NaCl versus no salt, C. albicans strains
Method: To determine the candidacidal activity of the peptides, we used Candida strains obtained from the Culture collection of antimicrobial resistant microbes at Seoul Women’s University in Korea. These included three Candida albicans (CCARM 14020, 14021, 14022), Candida guillermondi and Candida tropicalis. In addition, Candida albicans SC5413 was kindly provided by Dr Jeong-Yoon Kim at the Department of Microbiology & Molecular Biology, Chungnam University, Korea. Yeast were cultured overnight at 30°C in 10 ml of yeast extract-peptone-dextrose (YPD) broth (Qbiogene), then diluted in 10 ml of YPD broth to OD600 = 0.2 and grown for an additional 4 h with shaking at 30°C until OD600 = 0.8 in order to obtain mid-log phase cultures. The peptides (Hst 5, P113, HHP1, HHP2, PH1, PH2, di-PH1, di-PH2, WP1, di-WP2, di-15Hc and di-18Hc) in this study were synthesized by using standard solid-phase synthesis protocols and were purified by reversed-phase high-performance liquid chromatography at Anygen Inc. (Korea). FITC-labeled peptides (F-Hst5, F-P113, F-HHP1, F-di-PH2, F-di-WP2 and F-di-18Hc) were also synthesized by 6-aminohexnoic acid linker at Anygen (Korea) for confocal experiments.
The candidacidal activities of the peptides were tested by using standard microdilution plate assays, radial diffusion assays and broth dilution assay slightly modified from the procedure recommended by the National Committee for Clinical Laboratory Standards. For the candidacidal assays, C. albicans cells were grown in YPD medium and washed twice with 10 mM sodium phosphate buffer (NaPB; Na2HPO4, NaH2PO4, pH 7.4). The cells (1 x 10^6) were then mixed with different concentrations of peptides and incubated at 30°C with constant shaking for 60 min. For energy depletion experiments, cells were pre-incubated with 10 mM NaPB containing 5 mM NaN3 at 30°C for 60 min before the addition of peptides. The cell suspensions were diluted in 10 mM NaPB and aliquots of 500 cells were spread onto YPD agar plates then incubated for 24 h at 30°C to visualize the surviving colonies. Cell survival was expressed as a percentage of that for the control, and the loss of viability was calculated as [1 x (number of colonies from peptide-treated cells/number of colonies from control cells)] x 100. Candidacidal assays were performed in triplicate. For the radial diffusion assay, C. albicans cells were grown in YPD medium overnight and washed twice with 10 mM NaPB. Washed yeast-phase C. albicans cells (1 x 10^6 CFU) were trapped in thin underlay gels containing 9 mM sodium phosphate, 1 mM sodium citrate buffer, 1% (wt/vol) agarose (A6013; Sigma), and 0.3 mg of Sabouraud dextrose broth (Difco)/ml. After incubation at 37°C for 3 h, a 10 ml overlay gel of 1% agarose and 6% Sabouraud dextrose broth was poured on the underlay gel and then the plates were incubated overnight at 37°C. The clear-zone diameters were measured to the nearest 0.1 mm and graphed against the peptide concentration. Zone diameters were expressed in units (0.1 mm = 1 unit). For the broth dilution assay, the Candida strains were cultured in LYM broth for 18 h at 30°C. The numbers of yeasts were counted using a hemocytometer. Stock peptide solutions were prepared to a concentration of 320 μg/ml in distilled water, and were then serially diluted twofold, to 5 μg/ml. […] The antifungal activities were evaluated after 24 h of incubation at 30°C by the observation of visible turbidity the wells. […]

Candida albicans = assay type: cell-based; conditions: for reduction of cell viability: 1 μg/ml peptide, in 1 hour, colony count assay
Method: The candidacidal activities of the peptides were tested by using standard microdilution plate assays, radial diffusion assays and broth dilution assay slightly modified from the procedure recommended by the National Committee for Clinical Laboratory Standards. For the candidacidal assays, C. albicans cells were grown in YPD medium and washed twice with 10 mM sodium phosphate buffer (NaPB; Na2HPO4, NaH2PO4, pH 7.4). The cells (1 x 10^6) were then mixed with different concentrations of peptides and incubated at 30°C with constant shaking for 60 min. For energy depletion experiments, cells were pre-incubated with 10 mM NaPB containing 5 mM NaN3 at 30°C for 60 min before the addition of peptides. The cell suspensions were diluted in 10 mM NaPB and aliquots of 500 cells were spread onto YPD agar plates then incubated for 24 h at 30°C to visualize the surviving colonies. Cell survival was expressed as a percentage of that for the control, and the loss of viability was calculated as [1 x (number of colonies from peptide-treated cells/number of colonies from control cells)] x 100. Candidacidal assays were performed in triplicate. For the radial diffusion assay, C. albicans cells were grown in YPD medium overnight and washed twice with 10 mM NaPB. Washed yeast-phase C. albicans cells (1 x 10^6 CFU) were trapped in thin underlay gels containing 9 mM sodium phosphate, 1 mM sodium citrate buffer, 1% (wt/vol) agarose (A6013; Sigma), and 0.3 mg of Sabouraud dextrose broth (Difco)/ml. After incubation at 37°C for 3 h, a 10 ml overlay gel of 1% agarose and 6% Sabouraud dextrose broth was poured on the underlay gel and then the plates were incubated overnight at 37°C. The clear-zone diameters were measured to the nearest 0.1 mm and graphed against the peptide concentration. Zone diameters were expressed in units (0.1 mm = 1 unit). For the broth dilution assay, the Candida strains were cultured in LYM broth for 18 h at 30°C. The numbers of yeasts were counted using a hemocytometer. […] The antifungal activities were evaluated after 24 h of incubation at 30°C by the observation of visible turbidity the wells. The MIC values were expressed as intervals (a–b), with a representing the highest tested concentration at which microbes continue to grow, and b representing the lowest concentration at which growth inhibition could be detected.
Fig 4 Killing kinetics of Hst5, P113, di-18Hc, hybrid peptides against Candida albicans. Killing kinetics of peptides against C. albicans was measured by colony count assay. Candida cells were treated with a different concentration of peptides at a determined time. […] Killing percent was calculated with the following equation: Killing % = (number of control cell—number of treated cell)/control cell × 100.

Row | Compound | killing activities against C. albicans strains in 150 mM salt (C. albicans strains) | reduction of cell viability (Candida albicans) [%] | killing kinetics (time) (Candida albicans; membrane-attacking peptide with fast kinetics) [s] | decrease of killing activities in 150 mM salt (C. albicans strains)
1 | C[C@H](NC(=O)[C@H](Cc1c[nH]cn1)NC(=O)[C@H](CO)NC(=O)[C@@H](N)CC(=O)O)C(=O)N[C@@H](CCCCN)C(=O)N[C@@H](CCCNC(=N)N)C(=O)N[C@@H](Cc1c[nH]cn1)C(=O)N[C@@H](Cc1c[nH]cn1)C(=O)NCC(=O)N[C@@H](Cc1ccc(O)cc1)C(=O)N[C@@H](CCCCN)C(=O)N[C@@H](CCCNC(=N)N)C(=O)N[C@@H](CCCCN)C(=O)N[C@@H](Cc1ccccc1)C(=O)N[C@@H](Cc1c[nH]cn1)C(=O)N[C@@H](CCC(=O)O)C(=O)N[C@@H](CCCCN)C(=O)N[C@@H](Cc1c[nH]cn1)C(=O)N[C@@H](Cc1c[nH]cn1)C(=O)N[C@@H](CO)C(=O)N[C@@H](Cc1c[nH]cn1)C(=O)N[C@@H](CCCNC(=N)N)C(=O)NCC(=O)N[C@@H](Cc1ccc(O)cc1)C(=O)O [Hst 5, Histatin 5] | abolished |  |  | 
2 | CC(C)C[C@H](NC(=O)CNC(=O)[C@H](Cc1c[nH]cn1)NC(=O)[C@H](Cc1c[nH]cn1)NC(=O)[C@H](CC(C)C)NC(=O)[C@H](CC(C)C)NC(=O)[C@H](C)NC(=O)[C@H](CC(N)=O)NC(=O)[C@H](CC(C)C)NC(=O)[C@@H](N)Cc1c[nH]c2ccccc12)C(=O)N[C@@H](CC(N)=O)C(=O)N[C@@H](CSSC[C@H](NC(=O)[C@H](CC(N)=O)NC(=O)[C@H](CC(C)C)NC(=O)CNC(=O)[C@H](Cc1c[nH]cn1)NC(=O)[C@H](Cc1c[nH]cn1)NC(=O)[C@H](CC(C)C)NC(=O)[C@H](CC(C)C)NC(=O)[C@H](C)NC(=O)[C@H](CC(N)=O)NC(=O)[C@H](CC(C)C)NC(=O)[C@@H](N)Cc1c[nH]c2ccccc12)C(=O)N[C@@H](C)C(=O)N[C@@H](CCCCN)C(=O)NCC(=O)N[C@H](C(=O)N[C@@H](CC(C)C)C(=O)N[C@@H](C)C(N)=O)C(C)C)C(=O)N[C@@H](C)C(=O)N[C@@H](CCCCN)C(=O)NCC(=O)N[C@H](C(=O)N[C@@H](CC(C)C)C(=O)N[C@@H](C)C(N)=O)C(C)C [di-18Hc, reference compound] (I: H-WLNALLHHGLNCAKGVLA-NH2 / II: H-WLNALLHHGLNCAKGVLA-NH2; disulfide I:12-II:12 (inferred); N-terminus assumed) |  | 99 | ≤ 30 | 4-8 fold
3 | CC(C)C[C@H](NC(=O)CNC(=O)[C@H](Cc1c[nH]cn1)NC(=O)[C@H](Cc1c[nH]cn1)NC(=O)[C@H](CCCNC(=N)N)NC(=O)[C@H](CCCCN)NC(=O)[C@H](C)N)C(=O)N[C@@H](CC(N)=O)C(=O)N[C@@H](CSSC[C@H](NC(=O)[C@H](CC(N)=O)NC(=O)[C@H](CC(C)C)NC(=O)CNC(=O)[C@H](Cc1c[nH]cn1)NC(=O)[C@H](Cc1c[nH]cn1)NC(=O)[C@H](CCCNC(=N)N)NC(=O)[C@H](CCCCN)NC(=O)[C@H](C)N)C(=O)N[C@@H](C)C(=O)N[C@@H](CCCCN)C(=O)N[C@@H](Cc1ccccc1)C(=O)N[C@@H](Cc1c[nH]cn1)C(N)=O)C(=O)N[C@@H](C)C(=O)N[C@@H](CCCCN)C(=O)N[C@@H](Cc1ccccc1)C(=O)N[C@@H](Cc1c[nH]cn1)C(N)=O [di-PH2] (I: H-AKRHHGLNCAKFH-NH2 / II: H-AKRHHGLNCAKFH-NH2; disulfide I:9-II:9 (inferred); N-terminus assumed) | abolished | 99 |  | 
4 | CC(C)C[C@H](NC(=O)[C@@H](N)Cc1c[nH]c2ccccc12)C(=O)N[C@@H](CC(N)=O)C(=O)N[C@@H](C)C(=O)N[C@@H](CCCCN)C(=O)N[C@@H](CCCNC(=N)N)C(=O)N[C@@H](Cc1c[nH]cn1)C(=O)N[C@@H](Cc1c[nH]cn1)C(=O)NCC(=O)N[C@@H](Cc1ccc(O)cc1)C(=O)N[C@@H](CCCCN)C(=O)N[C@@H](CSSC[C@H](NC(=O)[C@H](CCCCN)NC(=O)[C@H](Cc1ccc(O)cc1)NC(=O)CNC(=O)[C@H](Cc1c[nH]cn1)NC(=O)[C@H](Cc1c[nH]cn1)NC(=O)[C@H](CCCNC(=N)N)NC(=O)[C@H](CCCCN)NC(=O)[C@H](C)NC(=O)[C@H](CC(N)=O)NC(=O)[C@H](CC(C)C)NC(=O)[C@@H](N)Cc1c[nH]c2ccccc12)C(=O)N[C@@H](CCCCN)C(=O)N[C@@H](Cc1ccccc1)C(=O)N[C@@H](Cc1c[nH]cn1)C(N)=O)C(=O)N[C@@H](CCCCN)C(=O)N[C@@H](Cc1ccccc1)C(=O)N[C@@H](Cc1c[nH]cn1)C(N)=O [di-WP2] (I: H-WLNAKRHHGYKCKFH-NH2 / II: H-WLNAKRHHGYKCKFH-NH2; disulfide I:12-II:12 (inferred); N-terminus assumed) |  | 99 |  | 4-8 fold
5 | AKRHHGYKRKFH-NH2 [P113] | abolished |  |  | 
